{"source": "patent US9120744B2", "about": "“Plasminogen activator inhibitor-1 inhibitors and methods of use thereof to modulate lipid metabolism” (THE REGENTS OF THE UNIVERSITY OF MICHIGAN, priority 2007, dated 2015)", "note": "Where a name gives a salt, the structure may show the parent alone."}
{"target": "recombinant active human PAI-1 (Homo sapiens (Human), UniProt P05121)", "sequence (P05121 24-402)": "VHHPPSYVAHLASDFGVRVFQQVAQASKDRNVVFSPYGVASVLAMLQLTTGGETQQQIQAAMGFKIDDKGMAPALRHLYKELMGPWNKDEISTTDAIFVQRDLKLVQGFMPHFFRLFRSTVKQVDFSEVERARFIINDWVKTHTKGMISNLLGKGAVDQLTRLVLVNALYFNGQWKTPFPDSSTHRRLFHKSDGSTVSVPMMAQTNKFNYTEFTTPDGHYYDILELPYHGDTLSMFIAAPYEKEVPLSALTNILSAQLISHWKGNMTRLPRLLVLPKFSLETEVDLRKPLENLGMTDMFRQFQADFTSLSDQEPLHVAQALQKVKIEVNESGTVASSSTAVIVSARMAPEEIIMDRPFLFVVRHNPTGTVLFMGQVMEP", "assay": "β-trypsin screening assay for PAI-1 inhibitors;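 further: fluorogenic readout with PAI-1 and β-trypsin at 10:1 molar ratio, untreated PAI-1 wells set as 100% PAI-1 activity and β-trypsin alone as 0%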", "format": "biochemical", "details": "not given"}
{"smiles": "Cl.NCCc1ccc(O)c(O)c1", "note": "[DOPAMINE HYDROCHLORIDE]", "screening hit: restoration of β-trypsin activity": "demonstrate PAI-1 inhibitor activity"}
{"smiles": "CNCC[C@H](Oc1cccc2ccccc12)c1cccs1", "note": "[DULOXETINE HCl]", "screening hit: restoration of β-trypsin activity": "demonstrate PAI-1 inhibitor activity"}
{"target": "recombinant active human PAI-1 (Homo sapiens (Human), UniProt P05121)", "assay": "β-trypsin screening assay for PAI-1 inhibitors;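 further: fluorogenic readout with PAI-1 and β-trypsin at 10:1 molar ratio, untreated PAI-1 wells set as 100% PAI-1 activity and β-trypsin alone as 0%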", "format": "biochemical", "details": "10 μM compound; hit = more than 3 standard deviations above control"}
{"smiles": "COc1cc(OC)c2c(c1)O[C@H](c1ccc(OC)c(OC)c1)[C@@H](O)C2", "screening hit: restoration of β-trypsin activity": "demonstrate PAI-1 inhibitor activity"}
{"smiles": "C=CC1=C(C(=O)O)N2C(=O)[C@@H](NC(=O)C(NC)c3csc(N)n3)[C@H]2SC1", "note": "(some centres unmarked)", "screening hit: restoration of β-trypsin activity": "demonstrate PAI-1 inhibitor activity"}
{"smiles": "O=c1cnn([C@H]2O[C@@H](CO)[C@H](O)[C@@H]2O)c(=O)[nH]1", "note": "(stereo in doubt) [6-AZAURIDINE]", "screening hit: restoration of β-trypsin activity": "demonstrate PAI-1 inhibitor activity"}
{"smiles": "CC(C)c1ccc2c(c1)c(SC(C)(C)C)c(CC(C)(C)C(=O)O)n2Cc1ccc(Cl)cc1", "note": "[1H-Indole-2-propanoic acid, 1-[(4-chlorophenyl)methyl]-3-[(1,1-dimethylethyl)thio]-Alpha,Alpha-dimethyl-5-(1-methylethyl)-]", "screening hit: restoration of β-trypsin activity": "demonstrate PAI-1 inhibitor activity"}
{"smiles": "CCOc1ccc(C(=O)c2ccc(O)c(O)c2O)cc1", "note": "[2,3,4-TRIHYDROXY-4′-ETHOXYBENZOPHENONE]", "screening hit: restoration of β-trypsin activity": "demonstrate PAI-1 inhibitor activity"}
{"smiles": "CCOC(=O)C1(O)Oc2cc(OC)cc(OC)c2C(=O)C1c1ccccc1", "note": "(centres unmarked) [2-ETHOXYCARBONYL-2-HYDROXY-5,7-DIMETHOXYISOFLAVANONE]", "screening hit: restoration of β-trypsin activity": "demonstrate PAI-1 inhibitor activity"}
{"smiles": "O=C(OC1Cc2c(O)cc(O)cc2O[C@@H]1c1cc(O)c(O)c(O)c1-c1c([C@@H]2Oc3cc(O)cc(O)c3C[C@@H]2OC(=O)c2cc(O)c(O)c(O)c2)cc(O)c(O)c1O)c1cc(O)c(O)c(O)c1", "note": "(some centres unmarked) [2′,2′-BISEPIGAL[…]]", "screening hit: restoration of β-trypsin activity": "demonstrate PAI-1 inhibitor activity"}
{"smiles": "c1ccc2c(Cc3c[nH]c4ccccc34)c[nH]c2c1", "note": "[3,3′-DIINDOLYLMETHANE]", "screening hit: restoration of β-trypsin activity": "demonstrate PAI-1 inhibitor activity"}
{"smiles": "O=c1c(-c2ccccc2)coc2cc(O)cc(O)c12", "note": "[5,7-DIHYDROXYISOFLAVONE]", "screening hit: restoration of β-trypsin activity": "demonstrate PAI-1 inhibitor activity"}
{"smiles": "CCCCCCCCCOc1ccc2[nH]cc(CCN)c2c1", "note": "[5-Nonyloxytryptamine]", "screening hit: restoration of β-trypsin activity": "demonstrate PAI-1 inhibitor activity"}
{"smiles": "O=C(O)c1cc(O)c(=O)c2c(O)c(O)ccc2c1", "note": "[7-DESHYDROXYPYROGALLIN-4-CARBOXYLIC ACID]", "screening hit: restoration of β-trypsin activity": "demonstrate PAI-1 inhibitor activity"}
{"smiles": "CC[C@@]1(O)C[C@H](O[C@H]2C[C@H](N(C)C)[C@H](O)[C@H](C)O2)c2c(cc3c(c2O)C(=O)c2c(O)cccc2C3=O)[C@H]1C(=O)OC", "note": "[AKLAVINE HYDROCHLORIDE]", "screening hit: restoration of β-trypsin activity": "demonstrate PAI-1 inhibitor activity"}
{"smiles": "O=C(O)C1CC([C@@H]2CCCCN2)CN2CCCCC12", "note": "(some centres unmarked) [APHYLLIC ACID]", "screening hit: restoration of β-trypsin activity": "demonstrate PAI-1 inhibitor activity"}
{"smiles": "CN1CCCC(n2nc(Cc3ccc(Cl)cc3)c3ccccc3c2=O)CC1", "note": "(centres unmarked) [AZELASTINE HYDROCHLORIDE]", "screening hit: restoration of β-trypsin activity": "demonstrate PAI-1 inhibitor activity"}
{"smiles": "CC1(C)S[C@@H]2[C@H](NC(=O)[C@H](NC(=O)N3CCNC3=O)c3ccccc3)C(=O)N2[C@H]1C(=O)[O-].[Na+]", "note": "[AZLOCILLIN SODIUM]", "screening hit: restoration of β-trypsin activity": "demonstrate PAI-1 inhibitor activity"}
{"smiles": "NC(CO)C(=O)NNCc1ccc(O)c(O)c1O", "note": "(centres unmarked) [BENSERAZIDE HYDROCHLORIDE]", "screening hit: restoration of β-trypsin activity": "demonstrate PAI-1 inhibitor activity"}
{"smiles": "CC(C)C[C@H](NC(=O)[C@@H](O)[C@H](N)Cc1ccccc1)C(=O)O", "note": "[BESTATIN]", "screening hit: restoration of β-trypsin activity": "demonstrate PAI-1 inhibitor activity"}
{"smiles": "c1ccc(-c2ccc(C(c3ccccc3)n3ccnc3)cc2)cc1", "note": "(centres unmarked) [BIFONAZOLE]", "screening hit: restoration of β-trypsin activity": "demonstrate PAI-1 inhibitor activity"}
{"smiles": "Oc1c(Cl)cc(Cl)cc1Sc1cc(Cl)cc(Cl)c1O", "note": "[BITHIONOL]", "screening hit: restoration of β-trypsin activity": "demonstrate PAI-1 inhibitor activity"}
{"smiles": "Oc1ccc2c(c1)OC[C@]1(O)Cc3cc(O)c(O)cc3[C@H]21", "note": "[BRAZILIN]", "screening hit: restoration of β-trypsin activity": "demonstrate PAI-1 inhibitor activity"}
{"smiles": "COc1ccc(CCN(C)CCC[C@](C#N)(c2ccc(OC)c(OC)c2)C(C)C)cc1OC", "note": "[Benzeneacetonitrile, Alpha-[3-[[2-(3,4-dimethoxyphenyl)ethyl]methylamino]propyl]-3,4-dimethoxy-Alpha-(1-methylethyl)-, (R)-]", "screening hit: restoration of β-trypsin activity": "demonstrate PAI-1 inhibitor activity"}
{"smiles": "C=C1/C(=C\\C=C2/CCC[C@@]3(C)[C@@H]2CC[C@H]3[C@H](C)/C=C/[C@@H](O)C2CC2)C[C@@H](O)C[C@H]1O", "note": "[CALCIPOTRIOL]", "screening hit: restoration of β-trypsin activity": "demonstrate PAI-1 inhibitor activity"}
{"smiles": "CCOc1nc2cccc(C(=O)OC(C)OC(=O)OC3CCCCC3)c2n1Cc1ccc(-c2ccccc2-c2nn[nH]n2)cc1", "note": "(centres unmarked) [CANDESARTAN CILEXTIL]", "screening hit: restoration of β-trypsin activity": "demonstrate PAI-1 inhibitor activity"}
{"smiles": "C[C@]12CCC(=O)C=C1C=C[C@@H]1[C@@H]2CC[C@@]2(C)[C@H]1CC[C@@]21CCC(=O)O1", "note": "[CANRENONE]", "screening hit: restoration of β-trypsin activity": "demonstrate PAI-1 inhibitor activity"}
{"smiles": "C[N+](C)(C)CCOC(N)=O", "note": "[CARBACHOL]", "screening hit: restoration of β-trypsin activity": "demonstrate PAI-1 inhibitor activity"}
{"smiles": "NCCC(=O)N[C@@H](Cc1c[nH]cn1)C(=O)O", "note": "[CARNOSINE]", "screening hit: restoration of β-trypsin activity": "demonstrate PAI-1 inhibitor activity"}
{"smiles": "C=CC1=C(C(=O)O)N2C(=O)[C@@H](NC(=O)C(NOCC(=O)O)c3csc(N)n3)[C@H]2SC1", "note": "(some centres unmarked) [CEFIXIME TRIHYDRATE]", "screening hit: restoration of β-trypsin activity": "demonstrate PAI-1 inhibitor activity"}
{"smiles": "CC1=C(O)C(=O)C=C2C1=CC=C1[C@@]2(C)CC[C@@]2(C)[C@@H]3C[C@](C)(C(=O)O)CC[C@]3(C)CC[C@]12C", "note": "[CELASTROL]", "screening hit: restoration of β-trypsin activity": "demonstrate PAI-1 inhibitor activity"}
{"smiles": "NCC1CCC(C(=O)Oc2ccc(CCC(=O)O)cc2)CC1", "note": "(centres unmarked) [CETRAXATE HCl]", "screening hit: restoration of β-trypsin activity": "demonstrate PAI-1 inhibitor activity"}
{"smiles": "CCN(CC)CCOc1ccc(C(=C(Cl)c2ccccc2)c2ccccc2)cc1", "note": "[CLOMIPHENE CITRATE]", "screening hit: restoration of β-trypsin activity": "demonstrate PAI-1 inhibitor activity"}
{"smiles": "Cc1nc(C)c(Cl)c(O)c1Cl", "note": "[CLOPIDOL]", "screening hit: restoration of β-trypsin activity": "demonstrate PAI-1 inhibitor activity"}
{"smiles": "COc1ccccc1/C=C\\C(=O)O", "note": "[COUMARINIC ACID METHYL ETHER]", "screening hit: restoration of β-trypsin activity": "demonstrate PAI-1 inhibitor activity"}
{"smiles": "COc1ccc2c(=O)c(-c3cc4c(cc3OC)OCO4)coc2c1", "note": "[CUNEATIN METHYL ETHER]", "screening hit: restoration of β-trypsin activity": "demonstrate PAI-1 inhibitor activity"}
{"smiles": "COc1ccccc1OCCNCC(O)COc1cccc2[nH]c3ccccc3c12", "note": "(centres unmarked) [Carvedilol]", "screening hit: restoration of β-trypsin activity": "demonstrate PAI-1 inhibitor activity"}
{"smiles": "CCN(CC)C(=O)N1CCN(C)CC1", "note": "[DIETHYLCARBAMAZINE CITRATE]", "screening hit: restoration of β-trypsin activity": "demonstrate PAI-1 inhibitor activity"}
{"smiles": "CC(C)=CCCC1(C)C=Cc2c(O)c3c(c(CC=C(C)C)c2O1)OC12C(=CC4CC1C(C)(C)OC2(C/C=C(/C)C(=O)O)C4O)C3=O", "note": "(centres unmarked) [DIHYD[…]]", "screening hit: restoration of β-trypsin activity": "demonstrate PAI-1 inhibitor activity"}
{"smiles": "COc1c(Cl)c(C)c2c(c1Cl)OC(=O)c1c(C)c(Cl)c(O)c(Cl)c1O2", "note": "[DIPLOICIN]", "screening hit: restoration of β-trypsin activity": "demonstrate PAI-1 inhibitor activity"}
{"smiles": "CC(=O)Oc1cccc(C(=O)O)c1OC(C)=O", "note": "[DIPYROCETYL]", "screening hit: restoration of β-trypsin activity": "demonstrate PAI-1 inhibitor activity"}
{"smiles": "CCN(CC)CCOC(=O)C(c1ccccc1)C1CCCCC1", "note": "(centres unmarked) [DROFENINE HYDROCHLORIDE]", "screening hit: restoration of β-trypsin activity": "demonstrate PAI-1 inhibitor activity"}
{"smiles": "O=C1Nc2ccc(Cl)cc2[C@@](C#CC2CC2)(C(F)(F)F)O1", "note": "[EFAVIRENZ]", "screening hit: restoration of β-trypsin activity": "demonstrate PAI-1 inhibitor activity"}
{"smiles": "O=C(O[C@@H]1Cc2c(O)cc(O)cc2O[C@@H]1c1ccc(O)c(O)c1)c1cc(O)c(O)c(O)c1", "note": "[EPICATECHIN MONOGALLATE]", "screening hit: restoration of β-trypsin activity": "demonstrate PAI-1 inhibitor activity"}
{"smiles": "O=C(Oc1cc(O)cc2c1C[C@@H](OC(=O)c1cc(O)c(O)c(O)c1)[C@@H](c1cc(O)c(O)c(O)c1)O2)c1cc(O)c(O)c(O)c1", "note": "[EPIGALLOCATECHIN 3,5-DIGALLATE]", "screening hit: restoration of β-trypsin activity": "demonstrate PAI-1 inhibitor activity"}
{"smiles": "Oc1cc(O)c2c(c1)O[C@H](c1cc(O)c(O)c(O)c1)[C@H](O)C2", "note": "[EPIGALLOCATECHIN]", "screening hit: restoration of β-trypsin activity": "demonstrate PAI-1 inhibitor activity"}
{"smiles": "O=C1[C@H](CC[C@H](O)c2ccc(F)cc2)[C@@H](c2ccc(O)cc2)N1c1ccc(F)cc1", "note": "[EZETIMIBE]", "screening hit: restoration of β-trypsin activity": "demonstrate PAI-1 inhibitor activity"}
{"smiles": "CS(=O)(=O)O.Oc1ccc(C2CNCCc3c2cc(O)c(O)c3Cl)cc1", "note": "(centres unmarked) [FENOLDOPAM MESYLATE]", "screening hit: restoration of β-trypsin activity": "demonstrate PAI-1 inhibitor activity"}
{"smiles": "NC(=O)OCC(COC(N)=O)c1ccccc1", "note": "[Felbamate]", "screening hit: restoration of β-trypsin activity": "demonstrate PAI-1 inhibitor activity"}
{"smiles": "CCOC(=O)c1ccc(OC(=O)CCCCCN=C(N)N)cc1.CS(=O)(=O)O", "note": "[GABEXATE MESYLATE]", "screening hit: restoration of β-trypsin activity": "demonstrate PAI-1 inhibitor activity"}
{"smiles": "CC(C)=CCCC1(C)C=Cc2c(O)c3c(c(CC=C(C)C)c2O1)OC12C(=CCCC1C(C)(C)O[C@@]2(C/C=C(\\C)C(=O)O)C(=O)O)C3=O", "note": "(some centres unmarked) [GARCINOLIC ACID]", "screening hit: restoration of β-trypsin activity": "demonstrate PAI-1 inhibitor activity"}
{"smiles": "Cl.N[C@H]1C(O)O[C@H](CO)[C@@H](O)[C@@H]1O", "note": "(some centres unmarked) [GLUCOSAMINE HYDROCHLORIDE]", "screening hit: restoration of β-trypsin activity": "demonstrate PAI-1 inhibitor activity"}
{"smiles": "CN1[C@H]2CCC[C@H]1CC(NC(=O)c1nn(C)c3ccccc13)C2.Cl", "note": "(some centres unmarked) [GRANISETRON HCl]", "screening hit: restoration of β-trypsin activity": "demonstrate PAI-1 inhibitor activity"}
{"smiles": "Oc1cc2c(cc1O)C1c3ccc(O)c(O)c3OCC1(O)C2", "note": "(centres unmarked) [HAEMATOXYLIN]", "screening hit: restoration of β-trypsin activity": "demonstrate PAI-1 inhibitor activity"}
{"smiles": "CC1=NCCc2c1[nH]c1cc(O)ccc21.Cl", "note": "[HARMALOL HYDROCHLORIDE]", "screening hit: restoration of β-trypsin activity": "demonstrate PAI-1 inhibitor activity"}
{"smiles": "O=C1C=C2CC3(O)COc4c(ccc(O)c4O)C3=C2C=C1O", "note": "(centres unmarked) [HEMATEIN]", "screening hit: restoration of β-trypsin activity": "demonstrate PAI-1 inhibitor activity"}
{"smiles": "O=c1cc(-c2cc(O)c(O)c(O)c2)oc2cc(O)cc(O)c12", "note": "[HIERACIN]", "screening hit: restoration of β-trypsin activity": "demonstrate PAI-1 inhibitor activity"}
